The target of one data set is T1, p38 MAPK/MK5 (Homo sapiens, UniProt Q16539).
T1 construct: purchased Carna (p38α); Abcam (MK5) 04-152; 217826
Kind of data set: In vitro activity assay of p38 MAPK/MK5 (Z-LYTE kinase assay kit). To be noted: active p38α, inactive MK5, Ser/Thr 4; 4-hour reaction at 20° C. The data set is classed as biochemical. On the procedure: The inhibitory effect of the compound on p38 MAPK/MK5 was evaluated using the Z-LYTE kinase assay kit (Thermo, PV3177). The test compound was dissolved in DMSO to obtain a 10 mM stock solution and stored at −20° C. for future use. The initial concentration of the compound was […], with 1% DMSO, 5-fold serial dilution, 8 concentrations, and duplicate wells. […] After a 4-hour reaction at 20° C., Development Reagent A diluted 2048-fold was added to each well, followed by incubation at room temperature for 1 hour. The reaction was terminated by adding 5 µL of stop buffer, and the plate was read using a microplate reader (Ex. 400 nm, Em. 445 nm; Ex. 400 nm, Em. 520 nm). The concentration-effect curve was fitted using GraphPad Prism 8 software, and the compound concentration resulting in 50% inhibition, IC50, was calculated.

Data set [1] in a line: Pharmacokinetic evaluation in mice. To be noted: mouse, plasma; for AUC(0-t): read-out: Area under curve AUC0-24 h; for half-life: read-out: Half-life T1/2 (converted). In kind it is in vivo. In a few lines: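 Compound was formulated in DMAC:Solutol:PBS (1:1:8) and given intravenously or by gavage to mice. Blood was sampled at 0.083-24 h and collected on EDTA-K2 for plasma. Plasma levels were measured by LC-MS/MS after acetonitrile precipitation, and parameters were calculated by non-compartmental analysis.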

[2] abbreviates: intravenous injection group 1 mg/kg.
The mark [3] stands for this setting: po, intragastric administration group 5 mg/kg.

The values below come from US20260217652A1, “PHENYL-SUBSTITUTED HETEROARYL COMPOUND AND PHARMACEUTICAL COMPOSITION COMPRISING SAME, PREPARATION METHOD THEREFOR AND USE THEREOF” (SHANGHAI MEIYUE BIOTECH DEVELOPMENT CO., LTD., priority 2023, published 2026).

Like-named read-outs stand apart in the source and are kept apart here.

In general, IC50 refers to the concentration that inhibits the measured activity by half. Low readings indicate higher potency, high ones lower potency. One may read the clearance as the rate of elimination divided by the concentration. As usually defined, the Vd is the apparent volume that relates the amount in the body to the concentration in plasma or blood. Broadly, the bioavailability is dose-corrected exposure relative to a reference, in per cent.

T1 sequence (Q16539 whole entry): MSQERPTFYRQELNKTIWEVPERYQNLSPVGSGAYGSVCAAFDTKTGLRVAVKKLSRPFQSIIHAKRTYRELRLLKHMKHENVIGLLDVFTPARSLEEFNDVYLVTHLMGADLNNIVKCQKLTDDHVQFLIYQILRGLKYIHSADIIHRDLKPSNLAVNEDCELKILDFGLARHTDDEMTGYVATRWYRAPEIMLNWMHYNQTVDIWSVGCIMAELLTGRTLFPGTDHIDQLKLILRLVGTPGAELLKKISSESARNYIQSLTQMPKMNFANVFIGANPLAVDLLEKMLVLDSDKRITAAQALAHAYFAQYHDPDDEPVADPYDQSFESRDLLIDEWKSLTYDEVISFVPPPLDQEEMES

In the case of `CNC(=O)c1cccc(-c2ncc(C)c(-n3c(C)cc(OCc4ncc(F)cc4F)c(Cl)c3=O)c2F)c1` [Compound 31-P1], half-maximal inhibition on p38 MAPK/MK5 (IC50) was put at 4.34 µM. Further, in data set [1] (setting [2]), the AUC(0-t) is 1360 ng·h/mL and the half-life is 0.57 h. The clearance in data set [1] (intravenous injection group 1 mg/kg, read-out: Clearance CL (converted)) was 12.3 mL/min/kg. Moreover, in data set [1] (intravenous injection group 1 mg/kg, read-out: Initial concentration C0), the C0 was determined as 2150 ng/mL. The volume of distribution (Vd) in data set [1] (intravenous injection group 1 mg/kg, read-out: Volume of distribution Vd) was determined as 0.47 L/kg. For the same compound, in data set [1] (setting [3]), the AUC(0-t) was found to be 2070 ng·h/mL and the half-life was 3.24 h. Besides, in data set [1] (po, intragastric administration group 5 mg/kg, read-out: Bioavailability F %), the bioavailability is 30.5%. In addition, the Cmax in data set [1] (po, intragastric administration group 5 mg/kg, read-out: Maximum concentration Cmax) is 979 ng/mL.
